ChEMBL document CHEMBL1201862, “PubChem BioAssay data set” (2004)
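Interpolation was linear, between the two tested concentrations surrounding the appropriate level; five concentrations were tested over 48 hours in 96-well plates. The concentration for 50% growth inhibition is given as GI50.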 Active and inactive are the calls of the source. Rule as the data show it: active = GI50 up to about 1.1 µM and inactive = higher.

What was measured:
Test in all cases: inhibition of tumour cell growth, NCI panel, 48 h
HOP-18 = test system: HOP-18
BT-549 = test system: BT-549
LXFL 529 = test system: LXFL 529
DLD-1 = test system: DLD-1
DMS-114 = test system: DMS-114
M14 = test system: M14
Hs-578T = test system: Hs-578T
RXF 631 = test system: RXF 631
DMS-273 = test system: DMS-273

Measured: GI50

O=c1cnn(C2OC(CO)C(O)C2O)c(=S)[nH]1 (centres undefined)
inactive: HOP-18 > 79.1 µM | BT-549 > 100 µM | LXFL 529 11.5 µM | DLD-1 8.47 µM | DMS-114 29.6 µM | M14 > 100 µM | Hs-578T > 100 µM | RXF 631 14.3 µM | DMS-273 2.31 µM
